Experimental data taken from paper PMC5880945, “D-Arg^0-Bradykinin-Arg-Arg, a Latent Vasoactive Bradykinin B2 Receptor Agonist Metabolically Activated by Carboxypeptidases” (Frontiers in Pharmacology, 2018).
Entries after “also recorded” stand apart in the source; their conditions may differ. Square brackets hold non-standard residues; d marks the D form. Peptide text beside a SMILES is read from it.

Legend:
[1] = system: human ACE-mCherry fusion protein; assay: Competition of a fluorogenic ACE substrate by synthetic kinins (recombinant ACE-mCherry); assay type: biochemical; conditions: 15 min, 37°C
Protocol: The source of enzyme was whole HEK 293a cells grown in 24-well plates and transfected as described with a vector coding for the human ACE-mCherry fusion protein, an active enzyme ([Charest-Morin and Marceau, 2016]). The culture medium was removed from cell wells, which were rinsed twice with PBS. The fluorogenic substrate (final concentration 20 μM), and, optionally, a competitor (BK, r-BK, or r-BK-RR in variable concentrations, or the ACE inhibitor enalaprilat 1 μM) were added in 250 μl PBS in each well; the plates were then incubated for 15 min at 37°C. At this point, the well supernatants were transferred in Eppendorf tubes, centrifuged 30 s at 12500 rpm to remove debris and 100 μl of this fluid transferred in wells of 96-well plate (black background) to read the fluorescence (excitation 320 nm, emission 420 nm) using a TECAN Infinite® 200 PRO microplate reader. Results were expressed as the percent of the fluorescence in wells containing ACE-mCherry and the substrate without competitors. Controls included mock-transfected cells and enalaprilat-treated cells.

[2] = system: GFP-tagged rabbit B2R (B2R-GFP); assay: B2R-GFP endocytosis and recycling, epifluorescence microscopy, HEK 293 cells; assay type: cell-based; conditions: 30 min vs 3 h of stimulation

Compound | inhibition of ACE substrate hydrolysis, in words ([1]; competitor 20 μM (equal to substrate concentration), fluorescence) | persistence of B2R-GFP endocytosis, in words [2] | competition for recombinant ACE, relative affinity, in words ([1]; Abz-Phe-Arg-Lys(Dnp)-Pro-OH 20 μM, HEK 293a cells with ACE-mCherry, PBS, fluorescence ex 320 / em 420 nm)
N=C(N)NCCC[C@@H](N)C(=O)N[C@@H](CCCNC(=N)N)C(=O)N1CCC[C@H]1C(=O)N1CCC[C@H]1C(=O)NCC(=O)N[C@@H](Cc1ccccc1)C(=O)N[C@@H](CO)C(=O)N1CCC[C@H]1C(=O)N[C@@H](Cc1ccccc1)C(=O)N[C@@H](CCCNC(=N)N)C(=O)O [r-BK, D-Arg^0-BK] (H-[dR]RPPGFSPFR-OH) | nearly complete inhibition | reversible as a function of incubation time, as that of BK; also recorded: not more persistent | –
N=C(N)NCCC[C@@H](N)C(=O)N[C@@H](CCCNC(=N)N)C(=O)N1CCC[C@H]1C(=O)N1CCC[C@H]1C(=O)NCC(=O)N[C@@H](Cc1ccccc1)C(=O)N[C@@H](CO)C(=O)N1CCC[C@H]1C(=O)N[C@@H](Cc1ccccc1)C(=O)N[C@@H](CCCNC(=N)N)C(=O)N[C@@H](CCCNC(=N)N)C(=O)N[C@@H](CCCNC(=N)N)C(=O)O [r-BK-RR, D-Arg^0-BK-Arg-Arg] (H-[dR]RPPGFSPFRRR-OH) | – | – | only slightly less potent than the two other peptides
